# Reference: article PMC6261342 (Journal of the American Chemical Society, 2018)
# Target: T1, O-GlcNAc transferase (OGT) (Homo sapiens, UniProt O15294)
# T1 sequence (O15294 323-1041): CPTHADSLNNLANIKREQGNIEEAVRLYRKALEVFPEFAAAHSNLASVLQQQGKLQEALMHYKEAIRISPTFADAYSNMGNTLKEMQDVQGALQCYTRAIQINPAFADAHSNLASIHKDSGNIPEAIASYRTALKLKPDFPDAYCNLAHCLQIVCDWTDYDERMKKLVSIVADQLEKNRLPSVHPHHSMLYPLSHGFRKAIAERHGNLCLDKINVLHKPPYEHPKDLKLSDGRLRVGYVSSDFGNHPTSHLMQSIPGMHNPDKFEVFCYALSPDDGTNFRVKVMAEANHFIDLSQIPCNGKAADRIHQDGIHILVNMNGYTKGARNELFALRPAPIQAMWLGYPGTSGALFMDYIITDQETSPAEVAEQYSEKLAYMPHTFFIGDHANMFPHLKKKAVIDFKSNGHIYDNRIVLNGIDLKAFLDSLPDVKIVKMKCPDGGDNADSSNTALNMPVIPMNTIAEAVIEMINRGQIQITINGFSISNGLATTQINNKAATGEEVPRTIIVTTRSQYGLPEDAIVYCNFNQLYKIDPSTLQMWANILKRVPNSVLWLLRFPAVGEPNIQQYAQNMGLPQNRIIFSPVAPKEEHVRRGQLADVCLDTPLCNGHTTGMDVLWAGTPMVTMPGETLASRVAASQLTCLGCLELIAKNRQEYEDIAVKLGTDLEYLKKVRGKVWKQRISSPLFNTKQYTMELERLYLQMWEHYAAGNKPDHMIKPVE
# Assay: microscale thermophoresis
# Assay type: binding
row,SMILES,Kd
1,CC(=O)N[C@H]1[C@@H](OP(=O)(O)OP(=O)(O)OC[C@H]2O[C@@H](n3ccc(=O)[nH]c3=O)[C@H](O)[C@@H]2O)O[C@H](CO)[C@@H](O)[C@@H]1O [UDP-GlcNAc],confirming that the method produced Kds for UDP and UDP-GlcNAc similar to those
2,O=c1ccn([C@@H]2O[C@H](COP(=O)(O)OP(=O)(O)O)[C@@H](O)[C@H]2O)c(=O)[nH]1 [UDP],confirming that the method produced Kds for UDP and UDP-GlcNAc similar to those
